Assay results: patent US20140213445A1, “Use of Pesticidal Active 3-Arylquinazolin-4-One Derivatives in Soil Application Methods” (BASF SE, priority 2011, published 2014)

Columns and labels:
[1] = system: Kanzawa Spider Mite (Tetranychus kanzawai); assay: Test B.1.2 Foliar assay Kanzawa spider mite on potted cotton plants; assay type: in vivo; details: cotton plants sprayed, assessed after 24, 72 and 120 hours, read-out: mortality in comparison with untreated controls
[2] = system: root-knot nematode (Meliodogyne spp.) juveniles; assay: Test B.2.1 Tomato soil drench against root-knot nematode juveniles; assay type: in vivo; details: soil drench 0.75 mg active ingredient/plant, galls counted at 14 DAT
Description: Tomatoes were grown in potting soil until the approximate first true leaf stage (about 2 weeks after planting). Tomatoes were transplanted into play sand. Seven days after transplant, technical material of test compound was dissolved in acetone, and then water was added to achieve a final concentration of 50% acetone. 1 mL of solution was pipetted onto the tomato root zone. One day after treatment (DAT), each pot was infested with about 500 root-knot nematode (Meliodogyne spp.) juveniles in 1 ml distilled water. Immediately after infestation, plants were placed in the greenhouse. Plants were top watered and fertilized daily. At 14 DAT, the tomato roots were rinsed off, and the number of galls was counted. Replication was 5-times.

[3] = system: 2-Spotted Spider Mite (Tetranychus urticae); assay: Test B.1.1 Foliar assay 2-spotted spider mite on Sieva lima bean plants; assay type: in vivo; details: 120 h, test solution 100 ppm, infested lima bean plants dipped, counts after 5 days, read-out: mortality in comparison with untreated controls
Description: The active compounds were formulated in 50:50 (vol:vol) acetone:water and 100 ppm Kinetica™ surfactant.
At about 2 hours before treatment Sieva lima bean plants with primary leaves expanded to 7-12 cm were infested by placing on each a small piece from an infested leaf (with about 100 mites) taken from the main colony in order to allow the mites to move over to the test plant to lay eggs. The piece of leaf used to transfer the mites was removed. The newly-infested plants were dipped in the test solution and allowed to dry. The test plants were kept under fluorescent light (24 hour photoperiod) at about 25° C. and about 20-40% relative humidity. After 5 days mortality counts were made.

[4] = system: two spotted spider mites (Tetranychus urticae); details: soil drench 4 mg active ingredient/plant, mites released 4 days after treatment, assessed 5 days after release
two spotted spider mites [5] = assay: Test B.1.5 Seed treatment assay in cucumber; assay type: in vivo; details: cucumber seed coated 0.5 mg active ingredient/seed, assessed 4 days after release of mites
Description: Test solution comprising a compound of the present invention is prepared at desired concentration using water and acetone as organic solvent. Cucumber seeds are coated with such prepared test solution applied at the rate of 0.5 mg active ingredient/seed and sown to the pots. After plant emergence (eleven days after treatment & planting), a mixed population of two spotted spider mites is released onto the leaves.
Four days after the release of spider mites, the acaricidal efficacy is measured by means of the rating of the damage caused by spider mites.
Percent damage as lesions was visually assessed, and means were calculated for each treatment. Mean percent damage reduction relative to the solvent blank was calculated as 100−(mean % lesions in treatment/mean % lesions in Solvent blank)*100.

two spotted spider mites [6] = assay: Test B.1.4 Seed treatment assay in cotton; assay type: in vivo; details: cotton seed coated 0.5 mg active ingredient/seed, assessed 4 days after release of mites

SMILES | mortality at 100 ppm [1] [%] | mean percent reduction of galls in comparison with untreated controls [2] | mortality at 100 ppm [3] [%] | mean percent damage reduction in comparison with untreated controls [4] | mean percent damage reduction in the cotyledon stage (two spotted spider mites [5]) | mean percent damage reduction in the cotyledon stage (two spotted spider mites [6])
Cc1cc(F)c(-n2cnc3ccc(F)cc3c2=O)cc1[S+]([O-])CC(F)(F)F (centres unmarked) [CE.I.31, 6-Fluoro-3-[2-fluoro-4-methyl-5-2(2,2,2-trifluoroethanesulfinyl)-phenyl]-3H-quinazolin-4-one] | ≥ 70 | at least 90% | ≥ 70 |  |  | 
Cc1cc(F)c(-n2cnc3ccc(F)cc3c2=O)cc1SCC(F)(F)F [CE.I.30, 6-Fluoro-3-[2-fluoro-4-methyl-5-2(2,2,2-trifluoroethylsulfanyl)-phenyl]-3H-quinazolin-4-one] |  |  | ≥ 70 |  |  | 
Cc1cc(F)c(-n2cnc3ccc(OC(F)(F)F)cc3c2=O)cc1[S+]([O-])CC(F)(F)F (centres unmarked) [CE.I.33, 6-Trifluormethoxy-3-[2-fluoro-4-methyl-5-2(2,2,2-trifluoroethanesulfinyl)-phenyl]-3H-quinazolin-4-one] | ≥ 70 |  | ≥ 70 |  |  | 
Cc1cc(F)c(-n2cnc3ccc(OC(F)(F)F)cc3c2=O)cc1SCC(F)(F)F [CE.I.32, 6-Trifluoromethoxy-3-[2-fluoro-4-methyl-5-2(2,2,2-trifluoroethylsulfanyl)-phenyl]-3H-quinazolin-4-one] |  |  | ≥ 70 |  |  | 
Cc1cc(F)c(-n2cnc3ccccc3c2=O)cc1[S+]([O-])CC(F)(F)F (centres unmarked) [CE.I.35, 2-(2,2,2-trifluoroethylsufinyl)-4-(4-oxo-quinazolin-3-yl)-5-fluoro-toluol] | ≥ 70 |  | ≥ 70 | at least 70% | at least 50% | at least 90%
Cc1cc(F)c(-n2cnc3ccccc3c2=O)cc1SCC(F)(F)F [CE.I.34, 2-(2,2,2-trifluoroethylsufanyl)-4-(4-oxo-quinazolin-3-yl)-5-fluoro-toluol] | ≥ 70 |  | ≥ 70 |  |  | 
